According to patent US9615576B2, “Pesticidal compositions and processes related thereto” (Dow AgroSciences LLC, priority 2011, dated 2017):

Experiments:
[1] = test system: Beet Armyworm (BAW) (Spodoptera exigua); experiment: Bioassays on Beet Armyworm (BAW), 128-well diet tray assay; format: in vivo; conditions: 168 h, 50 μg/cm^2 test compound on artificial diet, second instar larvae, 25° C., five to seven days, average of eight wells, read-out: BAW Rating (% mortality)
Experimental: (§1) Certain molecules disclosed in this document were tested against BAW and CEW using procedures described in the following examples. In the reporting of the results, the “BAW & CEW Rating Table” was used (See Table Section).
Bioassays on BAW (Spodoptera exigua)
Bioassays on BAW were conducted using a 128-well diet tray assay. one to five second instar BAW larvae were placed in each well (3 mL) of the diet tray that had been previously filled with 1 mL of artificial diet to which 50 μg/cm^2 of the test compound (dissolved in 50 μL of 90:10 acetone-water mixture) had been applied (to each of eight wells) and then allowed to dry. Trays were covered with a clear self-adhesive cover, and held at 25° C., 14:10 light-dark for five to seven days. Percent mortality was recorded for the larvae in each well; activity in the eight wells was then averaged. The results are indicated in the table entitled “Table 3: Assay Results” (See Table Section).

[2] = test system: Corn Earworm (CEW) (Helicoverpa zea); experiment: Bioassays on Corn Earworm (CEW), 128-well diet tray assay; format: in vivo; conditions: 168 h, 50 μg/cm^2 test compound on artificial diet, second instar larvae, 25° C., five to seven days, average of eight wells, read-out: CEW Rating (% mortality)
Experimental: as §1
Bioassays on CEW (Helicoverpa zea)
Bioassays on CEW were conducted using a 128-well diet tray assay. one to five second instar CEW larvae were placed in each well (3 mL) of the diet tray that had been previously filled with 1 mL of artificial diet to which 50 μg/cm^2 of the test compound (dissolved in 50 μL of 90:10 acetone-water mixture) had been applied (to each of eight wells) and then allowed to dry. Trays were covered with a clear self-adhesive cover, and held at 25° C., 14:10 light-dark for five to seven days. Percent mortality was recorded for the larvae in each well; activity in the eight wells was then averaged. The results are indicated in the table entitled “Table 3: Assay Results” (See Table Section).

| SMILES | mortality at 50 µg/cm2 [1] [%] | mortality at 50 µg/cm2 [2] [%] |
| --- | --- | --- |
| Cc1cc(/C=C/C(c2cc(Cl)c(Cl)c(Cl)c2)C(F)(F)F)ccc1C(=O)NC(C)(C)c1ccccn1 (stereo not shown) [AC27] | 50 to 100 | 50 to 100 |
| O=C(NCc1ccc(Cl)nc1)c1ccc(/C=C/C(c2cc(Cl)c(Cl)c(Cl)c2)C(F)(F)F)cc1Cl (stereo not shown) [AC28] | 50 to 100 | 50 to 100 |
| O=C(NC1CSC1)c1ccc(/C=C/C(c2cc(Cl)c(Cl)c(Cl)c2)C(F)(F)F)cc1Cl (stereo not shown) [AC29] | 50 to 100 | 50 to 100 |
| O=C(NC1CS(=O)(=O)C1)c1ccc(/C=C/C(c2cc(Cl)c(Cl)c(Cl)c2)C(F)(F)F)cc1Cl (stereo not shown) [AC30] | 50 to 100 | 50 to 100 |
| O=C(NCc1ccc(Cl)nc1)c1ccc(/C=C/C(c2cc(Cl)c(Cl)c(Cl)c2)C(F)(F)F)cc1Br (stereo not shown) [AC31] | 50 to 100 | 50 to 100 |
| O=C(NC1CSC1)c1ccc(/C=C/C(c2cc(Cl)c(Cl)c(Cl)c2)C(F)(F)F)cc1Br (stereo not shown) [AC32] | 50 to 100 | 50 to 100 |
| O=C(NC1CS(=O)(=O)C1)c1ccc(/C=C/C(c2cc(Cl)c(Cl)c(Cl)c2)C(F)(F)F)cc1Br (stereo not shown) [AC33] | 50 to 100 | 50 to 100 |
| O=C(NC1CSC1)c1ccc(/C=C/C(c2cc(Cl)c(Cl)c(Cl)c2)C(F)(F)F)cc1C(F)(F)F (stereo not shown) [AC34] | 50 to 100 | 50 to 100 |
| O=C(NC1CS(=O)(=O)C1)c1ccc(/C=C/C(c2cc(Cl)c(Cl)c(Cl)c2)C(F)(F)F)cc1C(F)(F)F (stereo not shown) [AC35] | 50 to 100 | 50 to 100 |
| O=C(NCc1ccc(Cl)nc1)c1ccc(/C=C/C(c2cc(Cl)c(Cl)c(Cl)c2)C(F)(F)F)cc1C(F)(F)F (stereo not shown) [AC36] | 50 to 100 | 50 to 100 |
| Cc1cc(/C=C/C(c2ccc(Cl)c(Cl)c2)C(F)(F)F)ccc1C(=O)NCc1ccc(Cl)nc1 (stereo not shown) [AC37] | 50 to 100 | 50 to 100 |
| Cc1cc(/C=C/C(c2cc(Cl)c(F)c(Cl)c2)C(F)(F)F)ccc1C(=O)NCc1ccc(Cl)nc1 (stereo not shown) [AC38] | 50 to 100 | 50 to 100 |
| Cc1cc(/C=C/C(c2cc(Cl)cc(Cl)c2)C(F)(F)F)ccc1C(=O)NCc1cncnc1 (stereo not shown) [AC39, 4-((E)-3-(3,5-dichlorophenyl)-4,4,4-trifluorobut-1-enyl)-2-methyl-N-((pyrimidin-5-yl)methyl)benzamide] | 50 to 100 | 50 to 100 |
| Cc1cc(/C=C/C(c2cc(Cl)cc(Cl)c2)C(F)(F)F)ccc1C(=O)NCC(=O)NC1CC1 (stereo not shown) [AC40] | 50 to 100 | 50 to 100 |
| Cc1cc(/C=C/C(c2cc(Cl)cc(Cl)c2)C(F)(F)F)ccc1C(=O)NCC(=O)NC1CSC1 (stereo not shown) [AC41] | 50 to 100 | 0 |
| Cc1cc(/C=C/C(c2cc(Cl)cc(Cl)c2)C(F)(F)F)ccc1C(=O)NCc1nc2ccccc2s1 (stereo not shown) [AC42] | 50 to 100 | 0 |
| Cc1cc(/C=C/C(c2cc(Cl)cc(Cl)c2)C(F)(F)F)ccc1C(=O)NCc1cnccn1 (stereo not shown) [AC43] | 50 to 100 | 50 to 100 |
| Cc1cc(/C=C/C(c2cc(Cl)cc(Cl)c2)C(F)(F)F)ccc1C(=O)NC(C)c1ccc(Cl)nc1 (stereo not shown) [AC44] | 50 to 100 | 50 to 100 |
| Cc1cc(/C=C/C(c2cc(Cl)cc(Cl)c2)C(F)(F)F)ccc1C(=O)NN(C)c1ccccc1F (stereo not shown) [AC45] | 50 to 100 | 50 to 100 |
| O=C(NCc1ccc(Cl)nc1)c1ccc(/C=C/C(c2cc(Cl)cc(Cl)c2)C(F)(F)F)cc1Br (stereo not shown) [AC46] | 50 to 100 | 50 to 100 |
| Cc1cc(/C=C/C(c2cc(Cl)cc(Cl)c2)C(F)(F)F)ccc1C(=O)NCC(=O)NNC(=O)C1CC1 (stereo not shown) [AC47] | 0 | 0 |
| Cc1cc(/C=C/C(c2cc(Cl)cc(Cl)c2)C(F)(F)F)ccc1C(=O)NCc1ccc(Cl)cc1 (stereo not shown) [AC48] | 50 to 100 | 50 to 100 |
| O=C(NCc1ccc(Cl)nc1)c1ccc(/C=C/C(c2cc(Cl)cc(Cl)c2)C(F)(F)F)cc1F (stereo not shown) [AC49] | 50 to 100 | 50 to 100 |
| Cc1cc(/C=C/C(c2cc(Cl)cc(Cl)c2)C(F)(F)F)ccc1C(=O)NCc1nccn1C (stereo not shown) [AC50] | 50 to 100 | 0 |
| Cc1cc(/C=C/C(c2cc(Cl)cc(Cl)c2)C(F)(F)F)ccc1C(=O)NCC(=O)N(C)CC(F)(F)F (stereo not shown) [AC51] | 50 to 100 | 50 to 100 |
| Cc1cc(/C=C/C(c2cc(Cl)c(F)c(Cl)c2)C(F)(F)F)ccc1C(=O)NC1CCOCC1 (stereo not shown) [AC52] | 50 to 100 | 50 to 100 |
